Patent US20180194967A1, “ANTIMICROBIAL PEPTIDE AMPHIPHILE COATINGS” (priority 2017, published 2018)
Where a SMILES comes first, the peptide text is derived from it. Bridges are numbered along the chain shown (N, C = ends). [ ]: non-standard residue; d: D form. The star is where a group is joined. d2Nal = N[C@H](Cc1ccc2ccccc2c1)C(=O)O; Palmitoyl = CCCCCCCCCCCCCCCC(=O)*

Test: Coating thickness by optical profilometry
Format: physicochemical
Conditions: submersion coating on PVC-coated glass slide
Method: For surface topology studies, PVC powder was purchased and dissolved in 3:2 cyclopentanone:tetrahydrofuran at a concentration of 10 mg/mL. PVC solution (50 μL) was used to spin-coat 1 cm diameter glass slides for 1 minute at 3,000 RPM. The PVC-coated slides were allowed to dry for 24 hours prior to submersion coating in 2 mL AMPA solutions. Coated products were removed from submersion and dried in 24-well plates under aseptic conditions for at least 24 hours prior to characterization. The coating was assessed via contact angle to evaluate surface hydrophilicity and optical profilometry to measure coating thickness. […] Electron microscopy of the AMPA coatings has shown no presence of micelles.

## CCCCCCCCCCCCCCCC(=O)NCCCC[C@H](NC(=O)[C@H]1CCCN1C(=O)[C@H](NC(=O)[C@@H]1CCCCNC(=O)C[C@H](NC(=O)[C@@H](NC(=O)[C@H](CCCNC(=N)N)NC(=O)[C@@H](NC(=O)[C@H](CCCNC(=N)N)NC(=O)[C@@H](NC(=O)[C@H](CCCNC(=N)N)NC(=O)[C@@H](N)Cc2ccccc2)[C@@H](C)CC)C(C)C)C(C)C)C(=O)N[C@@H](CCCNC(=N)N)C(=O)N[C@@H](CCCNC(=N)N)C(=O)N[C@H](Cc2ccc3ccccc3c2)C(=O)N[C@@H](Cc2ccccc2)C(=O)N[C@@H](Cc2c[nH]c3ccccc23)C(=O)N[C@@H](CCCNC(=N)N)C(=O)N1)C(C)C)C(N)=O [AB01-KPalm, FRIRVRV[DRR-dNal(2′)-FWRK]dV-Dp [SEQ. ID. NO. 1]-K(Palm)] (H-FRIRVRVDRR[d2Nal]FWRK[dV][dP]K(Palmitoyl)-NH2; lactam 8-15; N-terminus and C-terminus assumed)
  coating thickness: approximately 30 nm
